Laboratory results from patent US20250000874A1, “BACTERIAL METABOLITES AND THEIR USE IN REDUCING INFLAMMATION” (LOYOLA UNIVERSITY OF CHICAGO, priority 2023, published 2025).
“Also recorded” adds a separate entry of the source.

Assays:
[1] = test system: Raw 264.7 Cells; experiment: NC on TNFα release in Raw 264.7 cells in response to TLR agonists; assay type: cell-based, mouse; conditions: 50 μM NC 18 hours
Experimental: (§1) FIG. 27A and FIG. 27B. Metabolite NC on TNFα release in response to LPS in human and murine macrophages in vitro. Macrophages were plated at a uniform density of 0.2×10^6 cells/mL in 24 well plates. These cells (FIG. 27A) were allowed to adhere, or, in the case of THP-1 cells FIG. 27B), differentiate using PMA. They were then treated for 18 hours with 50 μM of metabolite NC before being stimulated with 0.1 ug of LPS-EK. Supernatant was collected between 4-6 hours after addition of LPS and debris was removed via centrifugation at 1250 rpm for 5 minutes. TNFα was quantified in the supernatant using sandwich ELISA with standards of known concentrations.
(§2) FIG. 28A and FIG. 28B. Metabolite NC on TNFα release in macrophages in response to various TLR agonists. Raw 264.7 cells (FIG. 28A) and THP-1 FIG. 28B) cells were plated at a uniform density of 0.2×10^6 cells per mL and stimulated with various TLR agonists: Pam3CSK4, Poly I:C, LPS, Fla, FSL-1, imiquimod (ImiQ), and ODN-2006. NC reduced TNFα release in response to TLR3 (p<0.0001 via student's t-test for both Raw 264.7 cells and THP-1 cells) and TLR4 agonists in both cell lines.
(§3) To investigate the effects of compound NC, macrophages were stimulated with LPS, an endotoxin associated with gram-negative bacteria. Human and murine macrophage-like cells (THP-1 cells and Raw 264.7 cells, respectively) were plated in 24 well plates at a uniform density of 0.2×10^6 cells/mL. Following 18 hours of pretreatment with 50 μM metabolite NC, they were stimulated with 10 μg/mL of LPS. After 4-6 hours, supernatant was collected and TNFα was quantified using sandwich ELISA. NC reduces TNFα release from both THP-1 and Raw 264.7 macrophage-like cells in response to TLR4 agonist LPS in vitro.
(§4) Metabolite NC reduces inflammation in response to TLR4 agonist LPS. To further investigate the specificity of NC's action in TLR signaling, Raw 264.7 (FIG. 28A) and THP-1 (FIG. 28B) cells were once again plated at a uniform density of 0.2×10^6 cells/mL, treated with 50 μM metabolite NC for 18 hours, and stimulated with agonists for TLR1/2, TLR3, TLR4, TLR5, TLR6/2, TLR7 and TLR9. After 4-6 hours, supernatant was collected and TNFα was quantified via sandwich ELISA.

[2] = test system: THP-1 cells; experiment: NC on TNFα release in THP-1 cells in response to TLR agonists; assay type: cell-based, human; conditions: 50 μM NC 18 hours
Experimental: as §1, §2, §3, §4

[3] = test system: NLRP3 inflammasome; experiment: JE on IL-1β production by THP-1 macrophages upon NLRP3 activation; assay type: cell-based, human
Experimental: FIG. 22. The Effect of JE on IL-1β Production by THP-1 Macrophages. THP-1 macrophages were pretreated with JE overnight at 37° C., 5% CO2. The next day, they were primed with LPS at 500 ng/ml for 4 hours then activated with 6.5 μM of nigericin for 30 minutes at 37 C, 5% CO2. Supernatants were collected and IL-1β production with ELISA. Data are presented as mean±SEM (n=6). *p<0.05. One of two experiments is shown.
FIG. 23. The Effect of JE on IL-1β Production by THP-1 Macrophages: JE was used as a pretreatment when THP-1 macrophages were pretreated with JE overnight at 37° C., 5% CO2. The next day, they were primed with LPS at 500 ng/ml for 4 hours, then activated with 5 mM of ATP for 30 minutes at 37° C., 5% CO2. In the case when JE was used as a treatment, cells were primed with 10 ng/ml of LPS for 4 hours, then JE was added overnight at 37° C., 5% CO2. The following day, macrophages were activated with 5 mM of ATP for an hour. Supernatants were collected and IL-1β production with ELISA. Data are presented as mean±SEM (n=6). **p<0.01. One of two experiments is shown.
We similarly tested THP-1 cells as described above. […] I collected the supernatant and measured IL-1β by ELISA. […]

[4] = TLR1/2, TLR5, TLR6/2, TLR7, TLR9 agonists

Compound | TNFα release in response to TLR3 agonist Poly I:C ([1]; 4-6 hours, ELISA) | TNFα release in response to TLR4 agonist LPS ([1]; LPS, 4-6 hours, ELISA) | TNFα release in the absence of LPS stimulation ([1]; unstimulated) | TNFα release in response to other TLR agonists [1, 4] | TNFα release in response to TLR3 agonist Poly I:C ([2]; 4-6 hours, ELISA) | TNFα release in response to TLR4 agonist LPS ([2]; LPS, 4-6 hours, ELISA) | TNFα release in the absence of LPS stimulation ([2]; unstimulated) | TNFα release in response to other TLR agonists [2, 4] | IL-1β production upon NLRP3 activation ([3]; JE added before priming with LPS (pretreatment overnight)) | IL-1β production upon NLRP3 activation ([3]; JE after priming with LPS and before adding ATP)
CCCCCCCCCCCCCCCC(=O)N[C@@H](C(=O)O)[C@H](C)O [NC, N-Palmitoyl-D-Threonine] | reduced | reduced; also recorded: significantly less | did not increase; also recorded: does not increase | did not significantly reduce | reduced | reduced; also recorded: significantly less | did not increase; also recorded: does not increase | did not significantly reduce |  | 
CC(=O)O[C@@H]1CC[C@H]2[C@H]3CC[C@H]4CC(F)(F)CC[C@]4(C)[C@H]3CC[C@]12C [JE, 3,3-Difluoro-5-alpha-androstan-17-beta-yl acetate] |  |  |  |  |  |  |  |  | could decrease | still detected robust production
